Test results reported in publication PMC10789292 (Journal of Alzheimer's Disease Reports, 2023).

Test system: cPLA2-IVA expressed in mouse brain
Test: Peptide binding to brain slices by IHC
Settings: for Binding (staining) to healthy NMRI and APP/PS1 mouse brain slices: biotinylated peptide 20 μM in HCN, overnight 4°C, DAB detection

Q: DDFRVWWPNFPR [PLP2] was tested. Which “Binding (staining) to healthy NMRI and APP/PS1 mouse brain slices” value did it give?
A: good staining

Q: Which “Binding (staining) to healthy NMRI and APP/PS1 mouse brain slices” value does the source give for YQFGYDYPRSQV [PLP1] here?
A: unable to bind the brain tissue

Q: Which results are given for HVTLRYMHPMVS [PLP25]?
A: Binding (staining) to healthy NMRI and APP/PS1 mouse brain slices: good staining; Staining of APP/PS1 versus healthy brain slices (biotinylated peptide 20 μM, 2 years old APP/PS1 mice): higher staining of APP/PS1 brain slices
